This is an account of results in patent US12312359B2 (Vitae Pharmaceuticals, LLC, priority 2016, dated 2025).

Experiment [1] addresses T1, biotinylated wild-type menin and MLL-AF9 fusion protein (menin/MLL binding) (Homo sapiens, UniProt O00255).
T1 construct: made in house; host or cells: menin: E. coli; MLL-AF9-FLAG: HEK293 cells, used as cleared lysate
T1 sequence (O00255 1-610): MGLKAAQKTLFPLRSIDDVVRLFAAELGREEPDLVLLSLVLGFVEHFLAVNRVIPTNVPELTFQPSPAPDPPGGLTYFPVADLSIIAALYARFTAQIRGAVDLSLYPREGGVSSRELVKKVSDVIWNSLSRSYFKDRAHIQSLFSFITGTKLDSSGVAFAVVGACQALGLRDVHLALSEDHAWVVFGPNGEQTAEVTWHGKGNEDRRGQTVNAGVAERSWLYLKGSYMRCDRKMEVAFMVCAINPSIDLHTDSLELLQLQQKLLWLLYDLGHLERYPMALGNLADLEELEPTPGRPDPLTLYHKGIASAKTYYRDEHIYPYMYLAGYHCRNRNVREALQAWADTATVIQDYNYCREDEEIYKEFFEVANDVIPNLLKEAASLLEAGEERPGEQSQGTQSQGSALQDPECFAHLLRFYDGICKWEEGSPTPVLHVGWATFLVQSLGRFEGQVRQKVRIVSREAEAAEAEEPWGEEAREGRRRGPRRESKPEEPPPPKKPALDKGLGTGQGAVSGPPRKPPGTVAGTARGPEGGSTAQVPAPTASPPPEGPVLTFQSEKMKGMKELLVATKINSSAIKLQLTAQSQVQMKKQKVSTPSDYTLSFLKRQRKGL
Briefly: Assay 1: menin/MLL binding AlphaLISA assay, wild-type menin. The following applies: Table 30; column head does not say wild-type or mutated menin. The gist of the method: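 Compound was preincubated 30 min at room temperature with biotinylated menin (5 nM) and MLL-AF9-FLAG lysate from HEK293 cells, pH 7.4 buffer with 5% DMSO and DTT. Bead-based Alpha signal after 60 min with streptavidin donor and anti-FLAG acceptor beads; four-parameter logistic fit gave IC50.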
(In Alpha technology, singlet oxygen from a donor bead excites a nearby acceptor bead.)

For experiment [2], the system named is human acute monocytic leukemia cell line MV-4-11. Briefly: Assay 2: cell proliferation assay (ATP quantitation, CellTiter-Glo), MV-4-11. As to conditions: Homo sapiens, MV4-11, 72 h, MV-4-11 cells. Format: cell-based. The method, boiled down: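 Read-out is CellTiter-Glo luminescence quantifying ATP. Compound exposure lasted 72 h at 37° C., 5% CO2, with 1.67×10^4 MV-4-11 cells per well in 10% FBS medium, alongside HL-60 toxicity-control cells.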
For orientation: ATP-based viability assays read luminescence as a measure of living cells.

For orientation: IC50 means the point on the concentration scale where inhibition reaches its midpoint. A high value points to weaker potency. Usually EC50 stands for the concentration that produces a half-maximal response. Higher therefore signals a need for much substance. The compound `CC(C)(O)c1ccccc1-c1cc(F)ccc1Oc1cncnc1N1CCC2(CCN(Cc3ccc4[nH]c(=O)[nH]c4c3)C2)C1` (stereo not shown) [Example 63, 5-((7-(5-((5-fluoro-2′-(2-hydroxypropan-2-yl)-[1,1′-biphenyl]-2-yl)oxy)pyrimidin-4-yl)-2,7-diazaspiro[4.4]nonan-2-yl)methyl)-1H-benzo[d]imidazol-2(3H)-one] gave a half-inhibitory concentration (IC50) in experiment [1] of less than 100 nM. Further, the concentration for a half-maximal effect (EC50) in experiment [2] is less than 100 nM.
As to `CC(C)c1ncncc1-c1cc(F)ccc1Oc1cncnc1N1CC2(CN(CC3CCC4(CC3)OCCO4)C2)C1` [Example 64, 2-(1,4-dioxaspiro[4.5]decan-8-ylmethyl)-6-(5-(4-fluoro-2-(4-isopropylpyrimidin-5-yl)phenoxy)pyrimidin-4-yl)-2,6-diazaspiro[3.3]heptane], the IC50 in experiment [1] was less than 100 nM. This compound registered a 50% effective concentration (EC50) in experiment [2] of 100 to 1000 nM.
For `CC(C)c1ncncc1-c1cc(F)ccc1Oc1cncnc1N1CC2(CN(CC3CCC(O)CC3)C2)C1` (stereo not shown) [Example 65, 4-((6-(5-(4-fluoro-2-(4-isopropylpyrimidin-5-yl)phenoxy)pyrimidin-4-yl)-2,6-diazaspiro[3.3]heptan-2-yl)methyl)cyclohexanol], in that order: less than 100 nM and 100 to 1000 nM.
As to `COC(C)c1ccccc1-c1cc(F)ccc1Oc1cncnc1N1CC2(CN(CC3CCOCC3)C2)C1` (stereo not shown) [Example 67, 2-(5-((5-fluoro-2′-(1-methoxyethyl)-[1,1′-biphenyl]-2-yl)oxy)pyrimidin-4-yl)-6-((tetrahydro-2H-pyran-4-yl)methyl)-2,6-diazaspiro[3.3]heptane], the concentration for half-maximal inhibition (IC50) in experiment [1] is less than 100 nM. The compound further registered an EC50 in experiment [2] of 100 to 1000 nM.
For `NC1Cc2ccc(-c3cc(F)ccc3Oc3cncnc3N3CC4(CN(CC5CCOCC5)C4)C3)cc2C1` (stereo not shown) [Example 68, 5-(5-fluoro-2-((4-(6-((tetrahydro-2H-pyran-4-yl)methyl)-2,6-diazaspiro[3.3]heptan-2-yl)pyrimidin-5-yl)oxy)phenyl)-2,3-dihydro-1H-inden-2-amine], in that order: less than 100 nM and not below 1000 nM.
For `CC(CO)c1ccccc1-c1cc(F)ccc1Oc1cncnc1N1CCC2(CCN(Cc3ccc4[nH]c(=O)[nH]c4c3)C2)C1` (stereo not shown) [Example 69, 5-((7-(5-((5-fluoro-2′-(1-hydroxypropan-2-yl)-[1,1′-biphenyl]-2-yl)oxy)pyrimidin-4-yl)-2,7-diazaspiro[4.4]nonan-2-yl)methyl)-1H-benzo[d]imidazol-2(3H)-one], in that order: less than 100 nM and less than 100 nM.
The like results for `O=c1[nH]c2ccc(CN3CCC4(CCN(c5ncncc5Oc5ccc(F)cc5CN5CCOCC5)C4)C3)cc2[nH]1` (stereo not shown) [Example 70, 5-((7-(5-(4-fluoro-2-(morpholinomethyl)phenoxy)pyrimidin-4-yl)-2,7-diazaspiro[4.4]nonan-2-yl)methyl)-1H-benzo[d]imidazol-2(3H)-one] were, in that order, less than 100 nM and less than 100 nM.
Regarding `CC(C)n1nc(C(F)(F)F)cc1-c1cc(F)ccc1Oc1cncnc1N1CC2(CN(CC3(O)CCCCC3)C2)C1` [Example 72, 1-((6-(5-(4-fluoro-2-(1-isopropyl-3-(trifluoromethyl)-1H-pyrazol-5-yl)phenoxy)pyrimidin-4-yl)-2,6-diazaspiro[3.3]heptan-2-yl)methyl)cyclohexan-1-ol], the IC50 in experiment [1] was less than 100 nM. This compound registered a concentration for a half-maximal effect (EC50) in experiment [2] of 100 to 1000 nM.
For `CC(C)C(=O)N(CC(N)=O)c1cc(F)ccc1Oc1cncnc1N1CCC2(CCN(Cc3ccc4[nH]c(=O)[nH]c4c3)C2)C1` (stereo not shown) [Example 73, N-(2-amino-2-oxoethyl)-N-(5-fluoro-2-((4-(7-((2-oxo-2,3-dihydro-1H-benzo[d]imidazol-5-yl)methyl)-2,7-diazaspiro[4.4]nonan-2-yl)pyrimidin-5-yl)oxy)phenyl)isobutyramide], in that order: less than 100 nM and 100 to 1000 nM.
Turning to `CC(C)C(=O)N(C)c1cc(F)ccc1Oc1cncnc1N1CCC2(CCN(Cc3ccc4[nH]c(=O)[nH]c4c3)C2)C1` (stereo not shown) [Example 76, N-(5-fluoro-2-((4-(7-((2-oxo-2,3-dihydro-1H-benzo[d]imidazol-5-yl)methyl)-2,7-diazaspiro[4.4]nonan-2-yl)pyrimidin-5-yl)oxy)phenyl)-N-methylisobutyramide], the half-inhibitory concentration (IC50) in experiment [1] was less than 100 nM. In experiment [2], this compound came in with an EC50 of less than 100 nM.
In experiment [1], `O=c1[nH]c2ccc(CN3CCC4(CCN(c5ncncc5Oc5ccc(F)cc5Cc5ccccc5)C4)C3)cc2[nH]1` (stereo not shown) [Example 77] returned a half-inhibitory concentration (IC50) of less than 100 nM. This compound also yielded a half-maximal effective concentration (EC50) in experiment [2] not below 1000 nM.
The like results for `Cn1c(-c2cc(F)ccc2Oc2cncnc2N2CC3(CCN(C[C@H]4CC[C@H](NC(=O)C(F)(F)F)CC4)CC3)C2)c(C2CC2)ccc1=O` [Example 79, N-((1r,4r)-4-((2-(5-(2-(3-cyclopropyl-1-methyl-6-oxo-1,6-dihydropyridin-2-yl)-4-fluorophenoxy)pyrimidin-4-yl)-2,7-diazaspiro[3.5]nonan-7-yl)methyl)cyclohexyl)-2,2,2-trifluoroacetamide] were, in that order, less than 100 nM and less than 100 nM.
For `Cn1c(-c2cc(F)ccc2Oc2cncnc2N2CC3(CCN(CC4CCC(NS(C)(=O)=O)CC4)CC3)C2)c(C2CC2)ccc1=O` (stereo not shown) [Example 80, N-(4-((2-(5-(2-(3-cyclopropyl-1-methyl-6-oxo-1,6-dihydropyridin-2-yl)-4-fluorophenoxy)pyrimidin-4-yl)-2,7-diazaspiro[3.5]nonan-7-yl)methyl)cyclohexyl) methanesulfon-amide], in that order: less than 100 nM and less than 100 nM.
For `N[C@H]1CC[C@H](CCN2CC3(C2)CN(c2ncncc2Oc2ccc(F)cc2-c2cccnc2C2CC2)C3)CC1` [Example 82, (1r,4r)-4-(2-(6-(5-(2-(2-cyclopropylpyridin-3-yl)-4-fluorophenoxy)pyrimidin-4-yl)-2,6-diazaspiro[3.3]heptan-2-yl)ethyl)cyclohexan-1-amine], in that order: less than 100 nM and 100 to 1000 nM.
For the compound `CC(C)N(C)C(=O)c1cc(F)ccc1Oc1cncnc1N1CC2(CC(NC[C@H]3CC[C@H](NC(=O)OC(C)(C)C)CC3)C2)C1` [Example 83, tert-butyl ((1r,4r)-4-(((2-(5-(4-fluoro-2-(isopropyl(methyl)carbamoyl)phenoxy)pyrimidin-4-yl)-2-azaspiro[3.3]heptan-6-yl)amino)methyl)cyclohexyl)carbamate], the IC50 in experiment [1] is less than 100 nM. The EC50 in experiment [2] lay within 100 to 1000 nM.
The like results for `CCN(C(=O)C(C)C)c1cc(F)ccc1Oc1cncnc1N1CC2(CCN(C[C@H]3CC[C@H](NC(=O)OC(C)(C)C)CC3)CC2)C1` [Example 84, tert-butyl ((1r,4r)-4-((2-(5-(2-(N-ethylisobutyramido)-4-fluorophenoxy)pyrimidin-4-yl)-2,7-diazaspiro[3.5]nonan-7-yl)methyl)cyclohexyl) carbamate] were, in that order, less than 100 nM and less than 100 nM.
The like results for `CCN(C(=O)C(C)C)c1cc(F)ccc1Oc1cncnc1N1CC2(CCN(C[C@H]3CC[C@H](NC(=O)OC)CC3)CC2)C1` [Example 85, methyl ((1r,4r)-4-((2-(5-(2-(N-ethylisobutyramido)-4-fluorophenoxy)pyrimidin-4-yl)-2,7-diazaspiro[3.5]nonan-7-yl)methyl)cyclohexyl) carbamate] were, in that order, less than 100 nM and 100 to 1000 nM.
The like results for `CCN(C(=O)C(C)C)c1cc(F)ccc1Oc1cncnc1N1CC2(CCN(C[C@H]3CC[C@H](NS(C)(=O)=O)CC3)CC2)C1` [Example 86, N-ethyl-N-(5-fluoro-2-((4-(7-(((1r,4r)-4-(methylsulfonamido)cyclohexyl)methyl)-2,7-diazaspiro [3.5]nonan-2-yl)pyrimidin-5-yl)oxy)phenyl)iso-butyramide] were, in that order, less than 100 nM and less than 100 nM.
`CC(C)N(C(=O)c1cc(F)ccc1Oc1cncnc1N1CC2(CN(CC[C@H]3CC[C@H](NC(=O)CC(C)(C)C)CC3)C2)C1)C(C)C` [Example 87, 2-((4-(6-(2-((1r,4r)-4-(3,3-dimethyl-butanamido)cyclo-hexyl)ethyl)-2,6-diazaspiro[3.3]heptan-2-yl)pyrimidin-5-yl)oxy)-5-fluoro-N,N-diisopropyl-benzamide] had a 50% inhibitory concentration (IC50) in experiment [1] of less than 100 nM. For the same compound, the concentration giving a half-maximal response (EC50) in experiment [2] is 100 to 1000 nM.
For `CC(C)(C)OC(=O)N[C@H]1CC[C@H](CCN2CC3(C2)CN(c2ncncc2Oc2ccc(F)cc2-c2cccnc2C2CC2)C3)CC1` [Example 88, tert-butyl ((1r,4r)-4-(2-(6-(5-(2-(2-cyclopropylpyridin-3-yl)-4-fluorophenoxy)pyrimidin-4-yl)-2,6-diazaspiro[3.3]heptan-2-yl)ethyl)cyclohexyl) carbamate], in that order: less than 100 nM and less than 100 nM.
